Usually IC50 stands for the concentration that inhibits the measured activity by half. One may read the Ki as a measure of affinity in units of concentration, obtained from inhibition or displacement.

Data set [1] addresses Cannabinoid receptor 1 (Homo sapiens, UniProt P21554). The format is cell membranes, Chem-1, Membrane. Particulars: chem-1.
Data set [2] concerns the target T1, C-X-C chemokine receptor type 1 (Homo sapiens, UniProt P25024). Further: in other assays of this panel Not Active means under 50% inhibition at 10 µM.
T1 sequence (P25024 whole entry): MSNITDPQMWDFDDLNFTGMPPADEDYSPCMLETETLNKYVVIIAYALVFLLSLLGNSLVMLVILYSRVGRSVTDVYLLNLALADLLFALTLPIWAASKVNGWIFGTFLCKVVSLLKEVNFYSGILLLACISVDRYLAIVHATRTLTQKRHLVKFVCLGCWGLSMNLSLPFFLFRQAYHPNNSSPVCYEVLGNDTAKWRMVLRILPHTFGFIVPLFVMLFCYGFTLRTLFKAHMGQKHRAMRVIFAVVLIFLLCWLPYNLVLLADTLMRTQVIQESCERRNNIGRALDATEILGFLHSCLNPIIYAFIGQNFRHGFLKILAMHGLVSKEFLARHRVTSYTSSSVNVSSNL

Data set [3] in a line: DRUGMATRIX: Phosphodiesterase PDE3 enzyme inhibition (substrate: [3H]cAMP + cAMP). The format is tissue-based, Homo sapiens. Particulars: platelet, Not Active = under 50% inhibition at 10 µM.
The target of data set [4] is T2, Cytochrome P450 1A2 (Homo sapiens, UniProt P05177). Further: in other assays of this panel Not Active means under 50% inhibition at 10 µM.
T2 sequence (P05177 whole entry): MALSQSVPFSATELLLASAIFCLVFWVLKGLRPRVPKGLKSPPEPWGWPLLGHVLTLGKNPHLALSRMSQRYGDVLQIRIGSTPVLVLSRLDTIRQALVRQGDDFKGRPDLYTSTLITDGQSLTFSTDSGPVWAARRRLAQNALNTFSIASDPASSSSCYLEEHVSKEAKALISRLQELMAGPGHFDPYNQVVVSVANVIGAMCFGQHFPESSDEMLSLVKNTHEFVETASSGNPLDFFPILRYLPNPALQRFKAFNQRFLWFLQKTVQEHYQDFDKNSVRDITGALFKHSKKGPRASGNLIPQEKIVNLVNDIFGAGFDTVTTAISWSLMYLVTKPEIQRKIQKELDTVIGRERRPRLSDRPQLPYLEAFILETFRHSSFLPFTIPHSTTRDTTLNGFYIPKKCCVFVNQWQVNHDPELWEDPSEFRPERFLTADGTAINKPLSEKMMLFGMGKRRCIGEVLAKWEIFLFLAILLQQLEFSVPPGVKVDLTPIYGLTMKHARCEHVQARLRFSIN
Particulars: bti-tn-5b1-4.

For data set [5], the target named is T3, Glucocorticoid receptor (Homo sapiens, UniProt P04150). Further: in other assays of this panel Not Active means under 50% inhibition at 10 µM.
T3 sequence (P04150 whole entry): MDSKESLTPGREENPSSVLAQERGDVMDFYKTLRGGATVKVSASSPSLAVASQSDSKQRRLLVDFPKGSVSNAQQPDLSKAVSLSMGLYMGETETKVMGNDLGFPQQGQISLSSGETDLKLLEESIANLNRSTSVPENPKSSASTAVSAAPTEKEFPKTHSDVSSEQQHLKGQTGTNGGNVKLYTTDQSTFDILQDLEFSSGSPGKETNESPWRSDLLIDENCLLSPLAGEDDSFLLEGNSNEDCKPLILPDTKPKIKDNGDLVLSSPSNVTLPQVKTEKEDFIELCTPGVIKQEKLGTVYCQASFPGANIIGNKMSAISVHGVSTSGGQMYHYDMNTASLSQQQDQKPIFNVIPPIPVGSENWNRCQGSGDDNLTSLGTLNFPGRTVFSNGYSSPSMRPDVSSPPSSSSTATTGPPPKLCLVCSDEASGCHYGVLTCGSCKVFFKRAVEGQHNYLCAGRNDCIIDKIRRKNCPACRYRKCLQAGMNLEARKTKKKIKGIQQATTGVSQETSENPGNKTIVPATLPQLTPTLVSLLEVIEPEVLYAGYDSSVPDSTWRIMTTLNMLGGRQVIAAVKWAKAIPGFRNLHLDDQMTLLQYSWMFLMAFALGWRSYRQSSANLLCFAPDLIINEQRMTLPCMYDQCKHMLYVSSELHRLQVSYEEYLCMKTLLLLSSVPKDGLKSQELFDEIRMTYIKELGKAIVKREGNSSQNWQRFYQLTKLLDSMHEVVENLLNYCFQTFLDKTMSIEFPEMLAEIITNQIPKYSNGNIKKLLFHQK
Particulars: hela s3.

Data set [6] addresses T4, Cholecystokinin receptor type A (Homo sapiens, UniProt P32238).
T4 sequence (P32238 whole entry): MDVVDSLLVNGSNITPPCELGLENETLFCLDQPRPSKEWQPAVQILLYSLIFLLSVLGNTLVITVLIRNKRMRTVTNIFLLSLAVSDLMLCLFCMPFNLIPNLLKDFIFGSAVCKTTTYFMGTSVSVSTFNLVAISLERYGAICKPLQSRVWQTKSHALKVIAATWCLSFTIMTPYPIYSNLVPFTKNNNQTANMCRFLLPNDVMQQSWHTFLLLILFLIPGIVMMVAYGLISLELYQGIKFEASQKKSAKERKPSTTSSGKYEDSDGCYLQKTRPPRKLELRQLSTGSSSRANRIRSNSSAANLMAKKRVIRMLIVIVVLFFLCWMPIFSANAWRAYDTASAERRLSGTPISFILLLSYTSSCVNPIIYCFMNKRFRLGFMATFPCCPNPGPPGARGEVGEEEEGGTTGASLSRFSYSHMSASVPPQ
The format is cell membranes, Membrane. Particulars: 1321-n1.

The target of data set [7] is Beta-3 adrenergic receptor (Homo sapiens, UniProt P13945). Nature of the data set: DRUGMATRIX: Adrenergic beta3 radioligand binding (ligand: [125I] Cyanopindolol). Format: cell membranes, HEK293, Membrane. Particulars: Not Active = under 50% inhibition at 10 µM.
Beta-3 adrenergic receptor, sequence (P13945 whole entry): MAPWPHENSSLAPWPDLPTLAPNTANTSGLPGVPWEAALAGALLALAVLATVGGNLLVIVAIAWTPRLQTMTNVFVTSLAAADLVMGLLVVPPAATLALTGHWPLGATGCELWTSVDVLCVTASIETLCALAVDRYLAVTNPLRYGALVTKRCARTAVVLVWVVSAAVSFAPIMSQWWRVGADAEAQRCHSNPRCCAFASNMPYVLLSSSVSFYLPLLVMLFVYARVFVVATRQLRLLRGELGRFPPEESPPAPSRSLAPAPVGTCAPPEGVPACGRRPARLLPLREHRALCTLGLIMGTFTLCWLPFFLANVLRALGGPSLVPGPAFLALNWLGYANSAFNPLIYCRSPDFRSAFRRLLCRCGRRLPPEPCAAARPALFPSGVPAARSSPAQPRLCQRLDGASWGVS

Cannabinoid receptor 1, sequence (P21554 whole entry): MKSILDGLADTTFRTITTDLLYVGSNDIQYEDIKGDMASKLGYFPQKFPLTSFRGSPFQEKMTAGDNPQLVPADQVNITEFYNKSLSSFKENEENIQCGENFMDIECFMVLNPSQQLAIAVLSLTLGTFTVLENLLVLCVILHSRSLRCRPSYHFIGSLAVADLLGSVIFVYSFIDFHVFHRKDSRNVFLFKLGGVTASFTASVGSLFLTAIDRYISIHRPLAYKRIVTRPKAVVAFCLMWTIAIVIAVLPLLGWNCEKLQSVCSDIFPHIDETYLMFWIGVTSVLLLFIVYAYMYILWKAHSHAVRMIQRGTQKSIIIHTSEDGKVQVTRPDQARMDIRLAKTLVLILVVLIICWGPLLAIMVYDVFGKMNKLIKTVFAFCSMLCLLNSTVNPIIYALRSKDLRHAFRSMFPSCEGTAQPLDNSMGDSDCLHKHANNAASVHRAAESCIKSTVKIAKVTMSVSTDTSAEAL

With `O=c1[nH]cnc2c1ncn2[C@H]1CC[C@@H](CO)O1` [DIDANOSINE], the IC50 entry in data set [1], in data set [2], in data set [3], in data set [4], in data set [5] and in data set [6] was “Not Active” throughout. The IC50 entry in data set [7] (hek293) is recorded as “Not Active”. The Ki entry in data set [3] and in data set [4] was “Not Active” in each case.

For `CCCCCCNC(=O)n1cc(F)c(=O)[nH]c1=O` [CARMOFUR], the IC50 result in data set [1], in data set [2], in data set [3], in data set [4], in data set [5] and in data set [6] was “Not Active” each time. In data set [7] (hek293), the IC50 entry is “Not Active”. The Ki result in data set [3] and in data set [4] was “Not Active” throughout.

Take `CC(C)Cn1cnc2c(N)nc3ccccc3c21` [IMIQUIMOD]: the IC50 result in data set [1], in data set [2], in data set [3], in data set [4], in data set [5] and in data set [6] was “Not Active” throughout. The IC50 result in data set [7] (hek293) is listed as “Not Active”. In addition, the Ki entry in data set [3] and in data set [4] was “Not Active” in each case.

Turning to `O=C1CN(/N=C/c2ccc([N+](=O)[O-])o2)C(=O)N1` [NITROFURANTOIN], the IC50 result in data set [1], in data set [2], in data set [3], in data set [4], in data set [5] and in data set [6] was “Not Active” throughout. Besides, in data set [7] (hek293), the IC50 entry was “Not Active”. In addition, the Ki result in data set [3] and in data set [4] was “Not Active” each time.

For `Cc1c(N)nc([C@H](CC(N)=O)NC[C@H](N)C(N)=O)nc1C(=O)N[C@H](C(=O)N[C@H](C)[C@@H](O)[C@H](C)C(=O)N[C@H](C(=O)NCCc1nc(-c2nc(C(=O)NCCC[S+](C)C)cs2)cs1)[C@@H](C)O)[C@@H](O[C@@H]1O[C@@H](CO)[C@@H](O)[C@H](O)[C@@H]1O[C@H]1O[C@H](CO)[C@@H](O)[C@H](OC(N)=O)[C@@H]1O)c1c[nH]cn1.[Br-]` [BLEOMYCIN A2], the IC50 result in data set [1], in data set [2], in data set [3], in data set [4], in data set [5] and in data set [6] was “Not Active” in each case. Further, the half-maximal inhibitory concentration (IC50) result in data set [7] (hek293) is given as “Not Active”. For the same compound, the inhibition constant Ki entry in data set [3] and in data set [4] was “Not Active” in each case.

As to `CC(C)Cc1ccc([C@H](C)C(=O)O)cc1` [DEXIBUPROFEN], the IC50 entry in data set [1], in data set [2], in data set [3], in data set [4], in data set [5] and in data set [6] was “Not Active” each time. The IC50 entry in data set [7] (hek293) is “Not Active”. The Ki entry in data set [3] and in data set [4] was “Not Active” each time.

For `COC(=O)C[C@](O)(CCC(C)(C)O)C(=O)O[C@@H]1C(OC)=C[C@]23CCCN2CCc2cc4c(cc2[C@H]13)OCO4` [HARRINGTONINE], the IC50 result in data set [1], in data set [2], in data set [3], in data set [4], in data set [5] and in data set [6] was “Not Active” in each case. In addition, the 50% inhibitory concentration (IC50) result in data set [7] (hek293) is given as “Not Active”. For the same compound, the inhibition constant Ki result in data set [3] and in data set [4] was “Not Active” throughout.

As for `NC(N)=Nc1nc(CSCCC(N)=NS(N)(=O)=O)cs1` [FAMOTIDINE], the IC50 result in data set [1], in data set [2], in data set [3], in data set [4], in data set [5] and in data set [6] was “Not Active” throughout. In addition, the 50% inhibitory concentration (IC50) result in data set [7] (hek293) is “Not Active”. The Ki entry in data set [3] and in data set [4] was “Not Active” each time.

In the case of `CN(CCOc1ccc(C[C@H](Nc2ccccc2C(=O)c2ccccc2)C(=O)O)cc1)c1ccccn1`, the half-maximal inhibitory concentration (IC50) entry in data set [1] is “Not Active”; in data set [2], “Not Active”; in data set [3] (read-out: IC50), 19.4 µM; in data set [4], “Not Active”; in data set [5] it was “Not Active”; in data set [6] it was “Not Active”. For the same compound, the half-maximal inhibitory concentration (IC50) in data set [7] (read-out: IC50) stood at 22.1 µM. Moreover, the values for the Ki result in data set [4] and in data set [7] (read-out: Ki) were “Not Active” and 16.6 µM, respectively.

For the compound `c1ccc2sc(SSc3nc4ccccc4s3)nc2c1` [BENZOTHIAZYL DISULFIDE], the IC50 entry in data set [1], in data set [2], in data set [3], in data set [4], in data set [5] and in data set [6] was “Not Active” each time. Besides, in data set [7] (hek293), the concentration for half-maximal inhibition (IC50) result is “Not Active”. In addition, the inhibitory constant (Ki) result in data set [3] and in data set [4] was “Not Active” each time.

Regarding `CC(C)(C#N)c1cc(Cn2cncn2)cc(C(C)(C)C#N)c1` [ANASTROZOLE], the IC50 result in data set [1], in data set [2], in data set [3], in data set [4], in data set [5] and in data set [6] was “Not Active” in each case. Moreover, the IC50 result in data set [7] (hek293) was “Not Active”. Besides, the Ki entry in data set [3] and in data set [4] was “Not Active” each time.

`CC(=O)[C@]1(O)Cc2c(O)c3c(c(O)c2[C@@H](O[C@H]2C[C@H](N)[C@H](O)[C@H](C)O2)C1)C(=O)c1ccccc1C3=O` [IDARUBICIN]: the half-inhibitory concentration (IC50) entry in data set [1], in data set [2], in data set [3], in data set [4], in data set [5] and in data set [6] was “Not Active” each time. Also, the IC50 entry in data set [7] (hek293) is “Not Active”. Also, the Ki result in data set [3] and in data set [4] was “Not Active” throughout.

As for `O=C(Nc1ccc(Cl)c(Cl)c1)c1cc(Cl)cc(Cl)c1O` [3,3',4',5-TETRACHLOROSALICYLANILIDE], the IC50 result in data set [1], in data set [2], in data set [3], in data set [4], in data set [5] and in data set [6] was “Not Active” each time. Further, the IC50 result in data set [7] (hek293) is reported as “Not Active”. Moreover, the inhibition constant Ki entry in data set [3] and in data set [4] was “Not Active” each time.

The values are drawn from ChEMBL document CHEMBL1909046, “DrugMatrix in vitro pharmacology data”.
